Measured values from patent US7265130B2, “NPY Y5 antagonist” (Shionogi & Co., Ltd., priority 1999, dated 2007).

How the values were obtained:
human NPY Y5 receptor [1] = molecular target: T1, human NPY Y5 receptor (Homo sapiens, UniProt Q15761); experiment: Affinity for NPY Y5 receptor ([125I] peptide YY binding, CHO cell membranes); settings: inhibition of specific [125I] peptide YY binding, membranes of CHO cells expressing NPY Y5 receptor
T1 construct: expressed in transfected cells
T1 sequence (Q15761 1-445): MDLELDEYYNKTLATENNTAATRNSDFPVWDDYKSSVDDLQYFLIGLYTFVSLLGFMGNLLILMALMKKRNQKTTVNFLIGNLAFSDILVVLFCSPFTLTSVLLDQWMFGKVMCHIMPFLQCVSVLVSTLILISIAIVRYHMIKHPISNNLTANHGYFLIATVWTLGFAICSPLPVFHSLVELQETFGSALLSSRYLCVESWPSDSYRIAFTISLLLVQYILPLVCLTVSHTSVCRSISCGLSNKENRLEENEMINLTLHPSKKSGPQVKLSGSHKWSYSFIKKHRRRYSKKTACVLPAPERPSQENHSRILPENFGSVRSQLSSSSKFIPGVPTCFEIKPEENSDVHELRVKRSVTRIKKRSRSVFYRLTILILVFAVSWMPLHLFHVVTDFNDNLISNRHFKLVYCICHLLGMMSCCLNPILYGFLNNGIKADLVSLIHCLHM
Outline: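 Membranes from CHO cells stably expressing human NPY Y5 receptor incubated with test compound and [125I] peptide YY (60 pM final) in HEPES-Hanks buffer with 0.1% BSA, pH 7.4, 25° C for 2 hours. Filter-bound radioactivity counted; non-specific binding with 200 nM peptide YY; IC50 against specific binding calculated.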

human NPY Y5 receptor [2] = molecular target: T1, human NPY Y5 receptor; experiment: cAMP production inhibitory activity in CHO cells; format: cell-based; settings: against 50 nM NPY inhibition of forskolin stimulated cAMP, CHO cells expressing human NPY Y5 receptor
Outline: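 CHO cells expressing human NPY Y5 receptor preincubated 20 min at 37 °C with 2.5 mM IBMX, then with compound for 5 min. Stimulated with 50 nM NPY plus 10 μM forskolin for 30 min. Reaction stopped with 1N HCl; supernatant cAMP measured by EIA.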

SMILES	IC50 (human NPY Y5 receptor [1])	IC50 (human NPY Y5 receptor [2])
CCOc1ccc(NC(=O)C2CCC(NS(=O)(=O)C(C)(C)C)CC2)cc1OCC (stereo not drawn) [Compound I-196]	1.4 nM	6.8 nM
CCCCc1ccc(NC(=O)C2CCC(NS(=O)(=O)C(C)(C)C)CC2)cc1 (stereo not drawn) [Compound I-18]	4.4 nM	29 nM
CC(C)(C)S(=O)(=O)NC1CCC(C(=O)Nc2ccc(F)c(F)c2F)CC1 (stereo not drawn) [Ia-24]	5.2 nM	74 nM
CC(C)S(=O)(=O)NC1CCC(C(=O)Nc2ccc(N3C[C@@H](C)O[C@@H](C)C3)c(F)c2)CC1 (stereo partly drawn) [Ia-49]	2.6 nM	83 nM
CC(C)(C)S(=O)(=O)NC1CCC(C(=O)Nc2ccc(C(C#N)c3ccccc3)c(Cl)c2)CC1 (stereo not drawn) [Compound I-130]	1.1 nM	42.5 nM
CN1C(=O)c2ccc(NC(=O)C3CCC(NS(=O)(=O)C(C)(C)C)CC3)cc2C1=O (stereo not drawn) [Ia-61]	0.68 nM	19 nM
CC(C)(C)S(=O)(=O)NC1CCC(C(=O)Nc2ccc3c(c2)C(=O)c2ccccc2-3)CC1 (stereo not drawn) [Compound I-135]	0.7 nM	22 nM
C[C@@H]1C[C@@H](C)CN(c2ccc(NC(=O)C3CCC(NS(=O)(=O)C(C)(C)C)CC3)cc2)C1 (stereo partly drawn) [Ia-38]	1 nM	2.2 nM
CC(C)(C)S(=O)(=O)NC1CCC(C(=O)Nc2ccc(-n3ncnn3)cc2)CC1 (stereo not drawn) [Compound I-84]	1.3 nM	25 nM
CC(C)(C)S(=O)(=O)NC1CCC(C(=O)Nc2cccc(O)c2)CC1 (stereo not drawn) [Compound I-163]	2.3 nM	83 nM
CCCCc1ccc(NC(=O)c2ccc(NS(=O)(=O)C(C)(C)Cl)cc2)cc1 [Compound I-106]	6.4 nM	29 nM
CCCCc1ccc(NC(=O)C2CCC(NS(=O)(=O)C(C)(C)C)CC2)cc1 (stereo not drawn) [Compound I-22]	8.6 nM	51 nM
CC(C)(C)S(=O)(=O)NC1CCC(C(=O)Nc2ccc3ncsc3c2)CC1 (stereo not drawn) [Compound I-207]	4.6 nM	23 nM
CCCCc1ccc(NC(=O)CCCCNS(=O)(=O)C(C)CC)cc1 (stereo not drawn) [Compound I-111]	1.8 nM	6.1 nM
CC(C)(C)S(=O)(=O)NC1CCC(C(=O)Nc2ccc(N3CCc4ccccc4C3)cc2)CC1 (stereo not drawn) [Compound I-60]	0.69 nM	18 nM
CC(C)(C)S(=O)(=O)NC1CCC(C(=O)Nc2nnc(-c3ccccc3)s2)CC1 (stereo not drawn) [Ia-66]	0.59 nM	3.2 nM

More lines, now with the values ahead:

IC50 (human NPY Y5 receptor [1])	IC50 (human NPY Y5 receptor [2])	SMILES
1.9 nM	60 nM	CC(C)(C)NC(=O)c1ccc(NC(=O)C2CCC(NS(=O)(=O)C(C)(C)C)CC2)cc1 (stereo not drawn) [Ia-187]
0.35 nM	5.4 nM	CC(C)(C)S(=O)(=O)NC1CCC(C(=O)Nc2ccc(OCC3CC3)cc2)CC1 (stereo not drawn) [Ia-174]
1.9 nM	11 nM	CC(C)NS(=O)(=O)c1ccc(NC(=O)C2CCC(NS(=O)(=O)C(C)(C)C)CC2)cc1 (stereo not drawn) [Ia-180]
0.91 nM	28 nM	CC(C)(C)S(=O)(=O)Nc1ccc(C(=O)Nc2ccc(-c3cccs3)cc2)cc1 [Ia-213]
0.34 nM	1000 nM	CC(C)(C)S(=O)(=O)NC1CCC(C(=O)Nc2ccc(NC(=O)C3CCCCC3)cc2)CC1 (stereo not drawn) [Ia-190]
0.49 nM	9.2 nM	CC(C)(C)S(=O)(=O)NC1CCC(C(=O)Nc2ccc(OC3CCCCC3)cc2)CC1 (stereo not drawn) [Ia-175]
0.24 nM	2.1 nM	CC(C)(C)S(=O)(=O)NC1CCC(C(=O)Nc2cccc(OCC3CC3)c2)CC1 (stereo not drawn) [Ia-182]
0.22 nM	8.1 nM	CC(C)S(=O)(=O)NC1CCC(C(=O)Nc2ccc(-c3ccco3)cc2)CC1 (stereo not drawn) [Ia-194]
1.9 nM	88 nM	CC(C)(C)S(=O)(=O)NC1CCC(C(=O)Nc2ccc(S(=O)(=O)NC3CCCCC3)cc2)CC1 (stereo not drawn) [Ia-169]
0.49 nM	220 nM	CC(C)NC(=O)c1ccc(NC(=O)c2ccc(NS(=O)(=O)C(C)(C)C)cc2)cc1 [Ia-191]
0.22 nM	14 nM	CC(C)(C)S(=O)(=O)NCCCCC(=O)Nc1ccc(N2CCC(O)(c3ccc(Cl)cc3)CC2)cc1 [Ia-85]
